Data: ChEMBL document CHEMBL1201862, “PubChem BioAssay data set” (2004)
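In this assay, cells in 96-well plates receive the compound at five concentrations for 48 hours. Endpoints are linearly interpolated between the surrounding concentrations. GI50 is the concentration that inhibits growth by half.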 The source made the active and inactive calls. No stated cut-off is given here; in the data, active = GI50 up to about 1.1 µM and inactive = higher.

Assays:
Assay in all cases: NCI-60 cell line screen, 48 h
SK-MEL-28 = test system: SK-MEL-28
UACC-257 = test system: UACC-257
OVCAR-3 = test system: OVCAR-3
SN12C = test system: SN12C
Malme-3M = test system: Malme-3M
OVCAR-8 = test system: OVCAR-8
786-0 = test system: 786-0
K562 = test system: K562
NCI-H226 = test system: NCI-H226
NCI-H522 = test system: NCI-H522
HCC 2998 = test system: HCC 2998
NCI-H23 = test system: NCI-H23
EKVX = test system: EKVX
LOX IMVI = test system: LOX IMVI
SF-268 = test system: SF-268
ACHN = test system: ACHN
HL-60 = test system: HL-60
OVCAR-4 = test system: OVCAR-4
CAKI-1 = test system: CAKI-1
KM-20L2 = test system: KM-20L2
RPMI-8226 = test system: RPMI-8226
LXFL 529 = test system: LXFL 529
SW-620 = test system: SW-620
SNB-19 = test system: SNB-19
SF-539 = test system: SF-539
OVCAR-5 = test system: OVCAR-5
IGROV-1 = test system: IGROV-1
TK-10 = test system: TK-10
RXF 393 = test system: RXF 393
DLD-1 = test system: DLD-1
SNB-78 = test system: SNB-78
HT-29 = test system: HT-29
SK-OV-3 = test system: SK-OV-3
UO-31 = test system: UO-31
HOP-62 = test system: HOP-62
HOP-18 = test system: HOP-18
M14 = test system: M14
NCI-H460 = test system: NCI-H460
SNB-75 = test system: SNB-75
UACC-62 = test system: UACC-62
SK-MEL-2 = test system: SK-MEL-2
KM12 = test system: KM12
MOLT-4 = test system: MOLT-4
A549 = test system: A549
CCRF-CEM = test system: CCRF-CEM
HCT-116 = test system: HCT-116
XF498 = test system: XF498
U-251 = test system: U-251
DMS-114 = test system: DMS-114
SF-295 = test system: SF-295
SK-MEL-5 = test system: SK-MEL-5
COLO 205 = test system: COLO 205
DMS-273 = test system: DMS-273
M19-MEL = test system: M19-MEL
SR = test system: SR
HOP-92 = test system: HOP-92
HCT-15 = test system: HCT-15
A498 = test system: A498

## COC(=O)/C(C#N)=C1\CCC(O)N1C (configuration not stated)
SK-MEL-28
  GI50: > 100 µM (inactive)
UACC-257
  GI50: > 100 µM (inactive)
OVCAR-3
  GI50: > 100 µM (inactive)
SN12C
  GI50: > 100 µM (inactive)
Malme-3M
  GI50: > 100 µM (inactive)
OVCAR-8
  GI50: > 100 µM (inactive)
786-0
  GI50: > 100 µM (inactive)
K562
  GI50: > 100 µM (inactive)
NCI-H226
  GI50: > 100 µM (inactive)
NCI-H522
  GI50: > 100 µM (inactive)
HCC 2998
  GI50: > 100 µM (inactive)
NCI-H23
  GI50: > 100 µM (inactive)
EKVX
  GI50: > 100 µM (inactive)
LOX IMVI
  GI50: > 100 µM (inactive)
SF-268
  GI50: > 100 µM (inactive)
ACHN
  GI50: > 100 µM (inactive)
HL-60
  GI50: > 100 µM (inactive)
OVCAR-4
  GI50: > 100 µM (inactive)
CAKI-1
  GI50: > 100 µM (inactive)
KM-20L2
  GI50: > 100 µM (inactive)
RPMI-8226
  GI50: > 100 µM (inactive)
LXFL 529
  GI50: > 100 µM (inactive)
SW-620
  GI50: > 100 µM (inactive)
SNB-19
  GI50: > 100 µM (inactive)
SF-539
  GI50: > 100 µM (inactive)
OVCAR-5
  GI50: > 100 µM (inactive)
IGROV-1
  GI50: > 100 µM (inactive)
TK-10
  GI50: > 100 µM (inactive)
RXF 393
  GI50: > 100 µM (inactive)
DLD-1
  GI50: > 100 µM (inactive)
SNB-78
  GI50: > 100 µM (inactive)
HT-29
  GI50: > 100 µM (inactive)
SK-OV-3
  GI50: > 100 µM (inactive)
UO-31
  GI50: > 100 µM (inactive)
HOP-62
  GI50: > 100 µM (inactive)
HOP-18
  GI50: > 100 µM (inactive)
M14
  GI50: > 100 µM (inactive)
NCI-H460
  GI50: > 100 µM (inactive)
SNB-75
  GI50: > 100 µM (inactive)
UACC-62
  GI50: > 100 µM (inactive)
SK-MEL-2
  GI50: > 100 µM (inactive)
KM12
  GI50: > 100 µM (inactive)
MOLT-4
  GI50: > 100 µM (inactive)
A549
  GI50: > 100 µM (inactive)
CCRF-CEM
  GI50: > 100 µM (inactive)
HCT-116
  GI50: > 100 µM (inactive)
XF498
  GI50: > 100 µM (inactive)
U-251
  GI50: > 100 µM (inactive)
DMS-114
  GI50: > 100 µM (inactive)
SF-295
  GI50: > 100 µM (inactive)

## Nc1ccc(C(=O)O)c2[nH]c3ccccc3c(=O)c12
UACC-257
  GI50: > 100 µM (inactive)
SK-MEL-5
  GI50: > 100 µM (inactive)
SN12C
  GI50: > 100 µM (inactive)
COLO 205
  GI50: > 100 µM (inactive)
Malme-3M
  GI50: > 100 µM (inactive)
OVCAR-8
  GI50: > 100 µM (inactive)
786-0
  GI50: > 100 µM (inactive)
K562
  GI50: > 100 µM (inactive)
DMS-273
  GI50: > 100 µM (inactive)
NCI-H522
  GI50: > 100 µM (inactive)
M19-MEL
  GI50: > 100 µM (inactive)
HCC 2998
  GI50: > 100 µM (inactive)
SR
  GI50: > 100 µM (inactive)
LOX IMVI
  GI50: > 100 µM (inactive)
SF-268
  GI50: > 100 µM (inactive)
ACHN
  GI50: > 100 µM (inactive)
HL-60
  GI50: > 100 µM (inactive)
OVCAR-4
  GI50: > 100 µM (inactive)
CAKI-1
  GI50: > 100 µM (inactive)
KM-20L2
  GI50: > 100 µM (inactive)
RPMI-8226
  GI50: > 100 µM (inactive)
LXFL 529
  GI50: > 100 µM (inactive)
SW-620
  GI50: > 100 µM (inactive)
SNB-19
  GI50: > 100 µM (inactive)
HOP-92
  GI50: > 100 µM (inactive)
SF-539
  GI50: > 100 µM (inactive)
OVCAR-5
  GI50: > 100 µM (inactive)
IGROV-1
  GI50: > 100 µM (inactive)
TK-10
  GI50: > 100 µM (inactive)
RXF 393
  GI50: > 100 µM (inactive)
DLD-1
  GI50: > 100 µM (inactive)
SNB-78
  GI50: > 100 µM (inactive)
HT-29
  GI50: > 100 µM (inactive)
SK-OV-3
  GI50: > 100 µM (inactive)
UO-31
  GI50: > 100 µM (inactive)
HCT-15
  GI50: > 100 µM
HOP-62
  GI50: > 100 µM (inactive)
HOP-18
  GI50: > 100 µM (inactive)
M14
  GI50: > 100 µM (inactive)
NCI-H460
  GI50: > 100 µM (inactive)
SNB-75
  GI50: 31.9 µM (inactive)
A498
  GI50: > 100 µM (inactive)
UACC-62
  GI50: > 100 µM (inactive)
SK-MEL-2
  GI50: > 100 µM (inactive)
KM12
  GI50: > 100 µM (inactive)
MOLT-4
  GI50: > 100 µM (inactive)
A549
  GI50: > 100 µM (inactive)
CCRF-CEM
  GI50: 88.7 µM (inactive)
HCT-116
  GI50: > 100 µM (inactive)
U-251
  GI50: > 100 µM (inactive)
DMS-114
  GI50: > 100 µM (inactive)
SF-295
  GI50: > 100 µM (inactive)
